From BindingDB's records for doi:10.1016/j.bmc.2012.05.002 (Seoul National University, 2012)

Biological target: T1, Sortase family protein (Staphylococcus aureus, UniProt Q9S446)
T1 sequence (Q9S446 whole entry): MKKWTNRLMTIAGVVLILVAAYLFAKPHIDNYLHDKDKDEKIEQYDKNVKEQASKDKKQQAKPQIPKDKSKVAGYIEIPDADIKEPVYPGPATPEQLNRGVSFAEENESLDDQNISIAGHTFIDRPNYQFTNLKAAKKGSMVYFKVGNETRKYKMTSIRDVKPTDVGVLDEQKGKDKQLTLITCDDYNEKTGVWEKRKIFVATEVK
Assay: Inhibition of Staphylococcus aureus ATCC 6538p recombinant SrtA

With `O=C(O)c1cc[c]([Hg][OH])cc1` as the compound, how does the IC50 read?
Its IC50 is 112 µM.
